Common to all, as to assay: NCI tumour cell line growth inhibition, 48 h
Assay [1] deals with KM20L2 colon.
The subject of assay [2] is LXFL 529 NSCLC.
The subject of assay [3] is XF 498 CNS.
The test system of assay [4] is DMS 114 small cell lung.
For assay [5], the system named is M19-MEL melanoma.
The test system of assay [6] is HOP-18 NSCLC.
The subject of assay [7] is MDA-N.
In assay [8] the test system is P388 leukemia.
For assay [9], the system named is SN12K1 renal.
In assay [10] the test system is P388/ADR leukemia.
Assay [11] relates to SNB-78 CNS.
Assay [12] has as its system RXF-631 renal.

Consider 43 molecules from PubChem BioAssay (NCI).

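Assay format: 96-well plates, 48-hour exposure. At the GI50, growth is halved. TGI is the concentration that stops growth completely.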 Where a SMILES comes first, the peptide text is derived from it. [ ]: non-standard residue; d: D form. ξ: configuration not given here. Pentanoyl(2-O,4-OH,5-Cl) = O=C(O)C(O)CC(O)CCl; Ile(3ξ) = CCC(C)[C@H](N)C(=O)O; NMeV = CN[C@H](C(=O)O)C(C)C; NMeA = CN[C@@H](C)C(=O)O; βAla = NCCC(=O)O

Consider `O=C1c2ccccc2C(=O)N1C/C=N/NS(=O)(=O)c1cccc([N+](=O)[O-])c1`, for which the TGI in assay [1], in [2], in assay [3], in assay [4] and in assay [5] was above 100 µM throughout.
Take `CN(C)CCN1C(=O)c2cccc3cc(N)cc(c23)C1=O`: the TGI is 23.5 µM in assay [1]; 33.7 µM in [6]; 13.4 µM in assay [7]; 3.64 µM in assay [3]; 12.1 µM in [8]; 7.43 µM in assay [9]. Also, the TGI in assay [10] worked out at 11.8 µM; in assay [4], 12.7 µM; in assay [5], 12.5 µM.
In the case of `COc1cccc(C2CC(C)(O)Oc3cc4c(cc32)OCO4)c1` (configuration not stated), in [7], the TGI was 7.84 µM.
`O=C(O)c1c2c(c(O)c3c1CN(C1CCCCC1)CO3)OCN(C1CCCCC1)C2` showed a TGI in assay [7] above 100 µM.
In turn, `O=C(O)C1CCCN1` (configuration not stated) had a TGI in [7] above 100 µM.
As to `CN(c1ccccc1)c1nc(=[N+](C)C)ss1`, the TGI in assay [1], in [11], in assay [6], in [2], in assay [3] and in [4] was above 100 µM in each case. The molecule also gave a TGI in assay [5] above 100 µM.
Take `O=c1c2ccccc2c(=O)n2n1-c1cccc(c1)CSSCc1cccc-2c1`: the TGI in [1], in [11], in assay [6], in assay [2], in [3] and in [12] was above 100 µM each time. Further, the TGI in assay [4] and in assay [5] was above 100 µM each time. In addition, the GI50 in assay [6], in assay [2], in assay [12], in [4] and in assay [5] was above 100 µM each time.
On to `CC(C)OC(=O)Nc1c([N+](=O)[O-])cc(C(F)(F)F)cc1[N+](=O)[O-]`, for which the TGI in assay [1] is above 100 µM; in [11], above 100 µM; in assay [6], above 100 µM; in assay [7], above 100 µM; in assay [2], above 100 µM; in assay [3], above 55.7 µM.
`OC(c1ccccc1)c1c(-c2ccccc2)[nH]c(-c2ccccc2)c1C(O)c1ccccc1` (configuration not stated): the TGI in [7] was determined as 7.2 µM.
As for `CCC(=O)N1C(=S)SC[C@H]1C(=O)OC`, the TGI in assay [1], in [11], in assay [6], in [2], in assay [3] and in [4] was above 100 µM each time. Besides, the TGI in [5] was above 100 µM.
Turning to `O=[N+]([O-])c1ccc(Cl)c(C2CC(c3cccc4ccccc34)=Nc3ccccc3S2=O)c1` (configuration not stated), the TGI in assay [1] was above 63.6 µM; in assay [11], 38.9 µM; in assay [6] it was above 100 µM; in assay [2], 52.8 µM; in [12] it was above 100 µM; in assay [4], 41.1 µM. Also, the TGI in assay [5] was above 62.7 µM.
As for `CC[O-].CC[O-].[O-]c1ccccc1C=NC12CC3CC(CC(C3)C1)C2.[O-]c1ccccc1C=NC12CC3CC(CC(C3)C1)C2.[Ti+4]`, the GI50 in [1] is 45.6 µM; in [11] it was above 100 µM; in [6], 85.5 µM; in [2], 23.5 µM; in assay [12], 29.4 µM; in [4], 23.4 µM. Further, in assay [5], the GI50 is above 100 µM. Further, the TGI in assay [1], in assay [11], in assay [6], in assay [2], in assay [12] and in assay [4] was above 100 µM throughout. Further, the TGI in assay [5] is above 100 µM.
On to `COC1C(OC(=O)/C=C/C=C/C=C/C=C/C(=O)O)CCC2(CO2)C1C1(C)OC1CC=C(C)C` (configuration not stated), for which the TGI in assay [1] is above 100 µM; in assay [11], above 100 µM; in assay [6], 94.8 µM; in assay [7] it was above 100 µM; in [3], above 100 µM; in [8], 29.1 µM. For the same molecule, the TGI in [9] was above 100 µM; in assay [10] it was above 49.2 µM; in [4], above 100 µM; in [5] it was above 100 µM. In [7], the GI50 is 0.246 µM.
Consider `O=c1cc(-c2cccc(Cl)c2)[nH]c2cc3c(cc12)OCO3`, for which the TGI in [6] stood at 34.4 µM; in assay [7], 0.158 µM; in [2] it was 2.73 µM; in assay [3], 13.8 µM; in assay [4] it was 4.23 µM; in assay [5], 75 µM.
In the case of `CN(N=O)C(=O)NC(CCCCNC(=O)OCc1ccccc1)C(=O)OCc1ccccc1` (configuration not stated), the TGI is above 100 µM in assay [1]; 60.4 µM in assay [11]; 94 µM in assay [2]; 30.6 µM in assay [3]; 44.8 µM in [12]; 72.6 µM in assay [4]. The TGI in assay [5] came out at 91.2 µM.
Molecule `CCC(C)[C@@H]1NC(=O)[C@@H]2CCCN2C(=O)C(CC(O)CCl)OC(=O)CCNC(=O)[C@H](C)N(C)C(=O)[C@H](C(C)C)N(C)C1=O` (some centres not stated) (cyclo([Ile(3ξ)][NMeV][NMeA][βAla][Pentanoyl(2-O,4-OH,5-Cl)]P)) yielded a TGI in assay [7] above 100 µM.
The same measure, in the same setting: as for `CC(C)(Sc1cc(C(C)(C)C)c(O)c(C(C)(C)C)c1)Sc1cc(C(C)(C)C)c(O)c(C(C)(C)C)c1`, the figure is above 100 µM.
In the case of `CCN(CC)CC(C(=O)Nc1c(C)cccc1C)/C(C)=N\NC(=S)NN` (configuration not stated), the TGI in assay [1], in assay [2], in assay [3], in assay [12] and in assay [5] was above 100 µM each time.
As for `O=c1oc2ccccc2cc1P(=O)(O)O`, the TGI in assay [7] was above 100 µM.
For the molecule `Cc1cc(C)c2c(c1)CSCc1cc(C)cc(C)c1-2`, the TGI is above 100 µM in assay [1]; 62 µM in assay [11]; above 100 µM in [6]; above 100 µM in [2]; 69.9 µM in assay [4]; 69.2 µM in assay [5].
Take `Cc1cc[c]([Sb]2[O]C(CO)C(C(O)C(O)C(=O)O)[O]2)cc1` (configuration not stated): in assay [7], the GI50 was 43.5 µM and the TGI is above 100 µM.
`[O-]c1ccccc1C=NCCN=Cc1ccccc1[O-].[O]=[U+2]=[O]`: the GI50 in assay [1] was above 100 µM; in [6], 31.2 µM; in assay [2], 17.8 µM; in [5], 32.2 µM. For the same molecule, the TGI in assay [1] is above 100 µM; in assay [6], above 77.1 µM; in assay [2], 53.3 µM; in assay [5] it was above 66.3 µM.
In assay [7], `Clc1ccc(NCNC2Nc3ccccc3N2)cc1Cl` showed a TGI above 100 µM.
In turn, `CC(C)(C)CNCCO` showed a TGI in [7] above 100 µM.
Take `CC(C)CC(NC(=O)C(O)C(N)Cc1ccccc1)C(=O)O` (configuration not stated): the TGI in assay [7] was above 100 µM.
Take `CCOc1ccc2c(c1)[n+]([O-])c(C(N)=O)c(N)[n+]2[O-]`: the TGI in [1], in assay [11], in assay [6], in assay [2], in [3] and in assay [4] was above 100 µM each time. The same molecule gave a TGI in assay [5] above 100 µM.
On to `C[C@]12CC[C@H]3[C@@H](CCC4=CC(=O)CC[C@@]43C)[C@]1(O)CC[C@]2(O)C(=O)CO`, for which, in [7], the TGI is above 100 µM.
`CCN(CC)C(=O)c1cccc2c(OC)ccc(OC)c12`: the TGI in assay [1], in assay [6], in [2], in assay [4] and in assay [5] was above 100 µM throughout.
In the case of `CC1=NC2(C(=O)O)C3(C(=O)O)N=C(C)OC3(C(F)(F)F)C2(C(F)(F)F)O1` (configuration not stated), the TGI in [1], in [11], in assay [6], in assay [3], in assay [4] and in assay [5] was above 100 µM in each case.
With `COc1ccc2c(c1[N+](=O)[O-])CC[C@@H]1[C@@H]2CC[C@]2(C)C(=O)CC[C@@H]12`, the TGI in [1] is above 25 µM; in assay [11], 25 µM; in assay [6] it was above 25 µM; in assay [7], above 1000 µM; in [3], 25 µM; in [8], above 25 µM. The TGI was above 25 µM in [9], 25 µM in assay [10], 25 µM in [4] and above 25 µM in assay [5]. Further, the GI50 in assay [7] is above 25 µM.
As to `O=C(Nc1ccc(Nc2ccc3c(c2)C(=O)c2ccccc2C3=O)c2c1C(=O)c1ccccc1C2=O)c1ccccc1`, in [7], the TGI is above 100 µM.
In the case of `O=C1C2C3SC(c4cc5ccccc5cc43)C2C(=O)N1c1ccccc1` (configuration not stated), the TGI in assay [1], in assay [11], in [6], in assay [2], in assay [12] and in assay [4] was above 100 µM throughout. In addition, in assay [5], the TGI was above 100 µM.
In the case of `NCCNCCNCc1c2ccccc2c(CNCCNCCN)c2ccccc12`, the TGI in assay [1], in assay [11], in assay [6], in assay [2], in assay [3] and in assay [4] was above 100 µM throughout. This molecule returned a TGI in [5] above 100 µM.
With `CCOc1ccc2c(c1)[n+]([O-])c(-c1ccccc1)c(N)[n+]2[O-]`, the TGI in assay [1], in [6], in assay [2], in assay [3], in [4] and in assay [5] was above 100 µM in each case.
`O=S1(=O)[C@H](c2ccccc2)c2c(-c3ccccc3)sc(-c3ccccc3)c2[C@@H]1c1ccccc1`: the TGI in assay [1], in assay [6], in [2], in [4] and in assay [5] was above 100 µM in each case.
With `O=C(O)c1ccccc1NS(=O)(=O)c1ccc(Cl)cc1`, the TGI in [1], in assay [11], in assay [6], in [2], in assay [3] and in assay [4] was above 100 µM each time. The same molecule gave a TGI in assay [5] above 100 µM.
For `CCOP(=O)(OCC)C(C(=O)OC)C(=O)C(=O)Nc1cccc([N+](=O)[O-])c1` (configuration not stated), the TGI in assay [1], in assay [11], in assay [6], in assay [2], in assay [3] and in [12] was above 100 µM in each case. For the same molecule, the TGI in assay [4] and in assay [5] was above 100 µM in each case.
For the molecule `COc1cc(OC)c(OC)cc1/C=C/c1ccccn1`, the TGI in assay [7] is above 10 µM.
On to `CC1COS(=O)N1c1ccccc1` (configuration not stated), for which the TGI in assay [1], in [6], in assay [2], in assay [3], in [4] and in assay [5] was above 100 µM each time.
On to `CC(NC(=O)c1ccc(Cl)c(Cl)c1)c1ccc(-c2ccccc2)cc1` (configuration not stated), for which the TGI in assay [7] was above 100 µM.
For `O=C1CN=C(c2ccccc2)c2ccncc2N1`, the TGI in assay [1], in assay [11], in assay [6], in assay [2], in [3] and in assay [12] was above 100 µM in each case. Besides, the TGI in [4] and in assay [5] was above 100 µM in each case.
On to `C=C1C(=O)O[C@@H]2C[C@@]3(C)CCC[C@H](C)C3=C[C@H]12` (tested in a mixture with another compound), for which the TGI in [7] is 7.08 µM.
For `O=C(c1ccccc1)c1nc2ccc(Cl)cc2cc1C(Br)Br`, the TGI in assay [1] worked out at 0.808 µM; in [6] it was 1.31 µM; in [2] it was 0.77 µM; in [3] it was 2.5 µM; in [4], 4.02 µM; in [5] it was 1.49 µM.
